The source made the active and inactive calls. The rule behind the calls is not given here.
Experiments:
[1] = target: T1, DNA-directed DNA polymerase (Enterobacteria phage T4) (UniProt P04415); assay: Inhibition of Enterobacteria T4 phage DNA polymerase
T1 sequence (whole entry): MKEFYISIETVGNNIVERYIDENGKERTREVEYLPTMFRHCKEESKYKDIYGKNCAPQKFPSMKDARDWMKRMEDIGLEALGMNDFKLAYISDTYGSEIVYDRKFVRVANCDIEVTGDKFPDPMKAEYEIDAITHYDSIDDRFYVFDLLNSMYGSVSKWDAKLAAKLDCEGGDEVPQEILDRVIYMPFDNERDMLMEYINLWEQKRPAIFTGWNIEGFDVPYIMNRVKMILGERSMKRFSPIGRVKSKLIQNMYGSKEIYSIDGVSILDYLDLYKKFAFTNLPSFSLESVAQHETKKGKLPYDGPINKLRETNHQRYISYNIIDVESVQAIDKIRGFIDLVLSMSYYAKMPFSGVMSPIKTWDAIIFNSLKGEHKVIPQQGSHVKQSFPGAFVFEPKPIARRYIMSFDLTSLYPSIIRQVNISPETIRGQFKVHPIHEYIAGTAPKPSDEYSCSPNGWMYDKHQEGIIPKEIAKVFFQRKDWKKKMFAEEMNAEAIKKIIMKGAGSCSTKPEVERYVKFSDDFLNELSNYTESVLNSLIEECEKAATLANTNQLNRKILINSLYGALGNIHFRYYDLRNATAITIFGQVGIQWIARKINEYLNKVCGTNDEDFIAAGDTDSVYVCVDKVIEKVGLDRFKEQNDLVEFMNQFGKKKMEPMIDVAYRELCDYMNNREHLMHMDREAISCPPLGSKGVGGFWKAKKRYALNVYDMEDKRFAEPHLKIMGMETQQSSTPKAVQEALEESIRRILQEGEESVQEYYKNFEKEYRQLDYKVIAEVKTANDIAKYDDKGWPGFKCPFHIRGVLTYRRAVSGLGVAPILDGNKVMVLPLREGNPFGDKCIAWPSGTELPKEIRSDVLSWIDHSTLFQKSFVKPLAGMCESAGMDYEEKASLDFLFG

Plasmodium falciparum [2] = assay: Inhibition of plasmodium falciparum apicoplast DNA polymerase exonuclease activity using blunt-ended double stranded oligonucleotide with 2-aminopurine at position 1 on 3' end as substrate assessed as reduction in exonuclease proofreading activity at 3'-5' direction at 100 uM relative to control
[3] = target: DNA polymerase I (Escherichia coli) (UniProt P00582); assay: Inhibition of Escherichia coli DNA polymerase I
Chain of DNA polymerase I (Escherichia coli) (P00582 whole entry): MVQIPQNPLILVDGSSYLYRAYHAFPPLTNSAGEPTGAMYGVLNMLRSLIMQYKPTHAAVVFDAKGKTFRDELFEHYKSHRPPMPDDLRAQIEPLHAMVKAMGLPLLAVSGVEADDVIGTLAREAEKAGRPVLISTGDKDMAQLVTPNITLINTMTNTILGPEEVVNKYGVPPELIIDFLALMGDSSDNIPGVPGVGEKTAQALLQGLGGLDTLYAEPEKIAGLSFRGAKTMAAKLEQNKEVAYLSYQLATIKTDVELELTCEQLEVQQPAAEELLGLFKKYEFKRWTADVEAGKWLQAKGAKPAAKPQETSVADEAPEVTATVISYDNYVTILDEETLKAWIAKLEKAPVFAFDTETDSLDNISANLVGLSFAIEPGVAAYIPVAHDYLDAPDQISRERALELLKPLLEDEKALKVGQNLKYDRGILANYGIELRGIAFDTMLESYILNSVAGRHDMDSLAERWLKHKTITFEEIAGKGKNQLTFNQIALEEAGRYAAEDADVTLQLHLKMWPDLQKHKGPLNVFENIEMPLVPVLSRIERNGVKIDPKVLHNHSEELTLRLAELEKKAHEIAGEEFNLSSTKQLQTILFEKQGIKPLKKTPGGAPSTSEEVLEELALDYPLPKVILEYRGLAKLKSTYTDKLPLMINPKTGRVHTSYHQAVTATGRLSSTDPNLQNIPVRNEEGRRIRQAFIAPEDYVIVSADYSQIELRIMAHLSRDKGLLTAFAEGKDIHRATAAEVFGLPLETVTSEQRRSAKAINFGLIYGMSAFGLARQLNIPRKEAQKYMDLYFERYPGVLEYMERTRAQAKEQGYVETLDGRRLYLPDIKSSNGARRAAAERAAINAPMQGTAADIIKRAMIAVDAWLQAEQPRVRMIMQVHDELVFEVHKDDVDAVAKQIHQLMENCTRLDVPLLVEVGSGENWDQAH

Plasmodium falciparum [4] = assay: Antiparasitic activity against Plasmodium falciparum NF54 with attB plasmid infected in red blood cells assessed as reduction in parasitemia incubated for 72 hrs; assay type: functional, organism-based, Red blood cell; conditions: NF54, Erythrocyte
Plasmodium falciparum [5] = assay: Inhibition of plasmodium falciparum apicoplast DNA polymerase exonuclease activity using blunt-ended double stranded oligonucleotide with 2-aminopurine at position 1 on 3' end as substrate assessed as exonuclease specific activity at 100 uM (reference value: 2.2 +/- 0.09%)
Plasmodium falciparum [6] = assay: Non-competitive inhibition of exonuclease deficient Plasmodium falciparum apicoplast DNA polymerase harboring wild type W512 residue assessed as inhibition constant for higher affinity site in presence of dNTPs
Plasmodium falciparum [7] = assay: Non-competitive inhibition of Plasmodium falciparum apicoplast DNA polymerase assessed as inhibition constant for higher affinity site in presence of various concentrations of dNTPs by molecular beacon assay
Plasmodium falciparum [8] = assay: Non-competitive inhibition of exonuclease deficient Plasmodium falciparum apicoplast DNA polymerase W512A mutant assessed as inhibition constant for lower affinity site in presence of dNTPs
Plasmodium falciparum [9] = assay: Non-competitive inhibition of Plasmodium falciparum apicoplast DNA polymerase assessed as inhibition constant for lower affinity site in presence of various concentrations of dNTPs by molecular beacon assay
Plasmodium falciparum [10] = assay: Non-competitive inhibition of exonuclease deficient Plasmodium falciparum apicoplast DNA polymerase W512A mutant assessed as inhibition constant for higher affinity site in presence of dNTPs
Plasmodium falciparum [11] = assay: Non-competitive inhibition of exonuclease deficient Plasmodium falciparum apicoplast DNA polymerase harboring wild type W512 residue assessed as inhibition constant for lower affinity site in presence of dNTPs
[12] = Inhibition of plasmodium falciparum apicoplast DNA polymerase exonuclease activity using blunt-ended double stranded oligonucleotide with 2-aminopurine at position 1 on 3' end as substrate assessed as reduction in exonuclease proofreading activity at 3'-5' direction
Plasmodium falciparum [13] = assay: Antiparasitic activity against Plasmodium falciparum NF54 with attB plasmid infected in red blood cells assessed as reduction in parasitemia incubated for 96 hrs in presence of isopentenyl pyrophosphate by flow cytometry analysis; assay type: functional, organism-based; conditions: Red blood cell
Plasmodium falciparum [14] = assay: Competitive inhibition of Plasmodium falciparum apicoplast DNA polymerase assessed as inhibition constant for lower affinity site in presence of various concentrations of dNTPs by molecular beacon assay

Structure (SMILES)	inhibition [1]	inhibition (Plasmodium falciparum [2]) [%]	inhibition [3]	EC50 (Plasmodium falciparum [4]) [µM]	Activity (Plasmodium falciparum [5]) [U]	KiH (Plasmodium falciparum [7]) [µM]	KiL (Plasmodium falciparum [9]) [µM]	IC50 [12] [µM]	KiH (Plasmodium falciparum [14]) [µM]	KiH (Plasmodium falciparum [6]) [µM]	KiL (Plasmodium falciparum [8]) [µM]	KiH (Plasmodium falciparum [10]) [µM]	KiL (Plasmodium falciparum [11]) [µM]	Activity (Plasmodium falciparum [13])
CC(C)(C)c1ccc(NC(=O)Nc2c3c(nn2-c2ccc(C(F)(F)F)cc2)CSC3)cc1	inactive	< 50	inactive	1.2	2.1	–	–	–	–	–	–	–	–	–
CC(C)(C)c1ccc(NC(=O)Nc2c3c(nn2-c2cccc(Cl)c2)CSC3)cc1	inactive	< 50	inactive	1.3	2.6	2.73	12.2	–	–	2.73	6.8	4.65	12.2	–
Cc1cccc(-n2nc3c(c2NC(=O)Nc2ccc(C(C)(C)C)cc2)CSC3)c1	inactive	< 50	inactive	3.1	1.2	–	–	–	–	–	–	–	–	–
CC(C)(C)c1ccc(NC(=O)Nc2c3c(nn2-c2ccc(Cl)cc2)CSC3)cc1	inactive	< 50	inactive	1	2.1	1.97	15	–	–	–	–	–	–	–
Cc1ccc(-n2nc3c(c2NC(=O)c2ccc(C(C)(C)C)cc2)CSC3)cc1	inactive	< 50	inactive	> 20	1.5	–	–	–	–	–	–	–	–	–
CC(C)(C)c1ccc(NC(=O)Nc2c3c(nn2-c2ccncc2)COC3)cc1	inactive	–	inactive	3.3	1.3	–	–	–	–	–	–	–	–	–
CC(C)(C)c1ccc(S(=O)(=O)Nc2c3c(nn2-c2ccc(Cl)cc2)CSC3)cc1	inactive	> 90	inactive	> 20	0.06	–	–	21	–	–	–	–	–	–
CC(C)(C)C(=O)Nc1c2c(nn1-c1cccc(Cl)c1)COC2	inactive	–	inactive	> 20	2.6	–	–	–	–	–	–	–	–	–
CC(C)(C)c1ccc(C(=O)Nc2c3c(nn2-c2ccc(C(F)(F)F)cc2)CSC3)cc1	inactive	< 50	inactive	4.8	2	–	–	–	–	–	–	–	–	–
CC(C)(C)c1ccc(C(=O)Nc2c3c(nn2-c2ccc(Cl)cc2)CSC3)cc1	inactive	< 50	inactive	4.2	2.4	–	–	–	–	–	–	–	–	–
O=C(Nc1c2c(nn1-c1cccc(Cl)c1)COC2)c1ccc(-c2ccccc2)cc1	inactive	–	inactive	> 20	1.2	–	–	–	–	–	–	–	–	–
CC(C)(C)c1ccc(C(=O)Nc2c3c(nn2-c2cccc(C(F)(F)F)c2)CSC3)cc1	inactive	< 50	inactive	2	2.4	–	–	–	–	–	–	–	–	–

Now from value to compound, other results behind:

inhibition [1]	inhibition (Plasmodium falciparum [2]) [%]	inhibition [3]	EC50 (Plasmodium falciparum [4]) [µM]	Activity (Plasmodium falciparum [5]) [U]	KiH (Plasmodium falciparum [7]) [µM]	KiL (Plasmodium falciparum [9]) [µM]	IC50 [12] [µM]	KiH (Plasmodium falciparum [14]) [µM]	Structure (SMILES)	KiH (Plasmodium falciparum [6]) [µM]	KiL (Plasmodium falciparum [8]) [µM]	KiH (Plasmodium falciparum [10]) [µM]	KiL (Plasmodium falciparum [11]) [µM]	Activity (Plasmodium falciparum [13])
inactive	–	inactive	> 20	2.2	–	–	–	–	CC(=O)Nc1c2c(nn1-c1cccc(Cl)c1)COC2	–	–	–	–	–
inactive	–	inactive	> 20	2.3	–	–	–	–	O=C(Nc1c2c(nn1-c1cccc(Cl)c1)COC2)C(F)(F)F	–	–	–	–	–
inactive	> 90	inactive	> 20	0.01	–	–	16	–	CC(C)(C)c1ccc(S(=O)(=O)Nc2c3c(nn2-c2ccc(C(F)(F)F)cc2)CSC3)cc1	–	–	–	–	–
inactive	–	inactive	> 20	2.3	–	–	–	–	Cc1cccc(-n2nc3c(c2NS(=O)(=O)c2ccc(C(C)(C)C)cc2)CSC3)c1	–	–	–	–	–
inactive	–	inactive	8	1.8	–	–	–	–	O=C(Nc1c2c(nn1-c1cccc(Cl)c1)COC2)c1ccc2ccccc2c1	–	–	–	–	–
inactive	< 50	inactive	5.9	2.3	–	–	–	–	Cc1cccc(-n2nc3c(c2NC(=O)c2ccc(C(C)(C)C)cc2)CSC3)c1	–	–	–	–	–
inactive	–	inactive	4.6	1.2	–	–	–	–	CC(C)(C)c1ccc(C(=O)Nc2c3c(nn2-c2cccc(Cl)c2)COC3)cc1	–	–	–	–	–
inactive	< 50	inactive	4	1.6	5.98	15.9	–	–	CC(C)(C)c1ccc(C(=O)Nc2c3c(nn2-c2cccc(Cl)c2)CSC3)cc1	–	–	–	–	Active
inactive	–	inactive	> 20	2.2	–	–	–	–	Cc1ccc(-n2nc3c(c2NS(=O)(=O)c2ccc(C(C)(C)C)cc2)CSC3)cc1	–	–	–	–	–
inactive	–	inactive	0.74	2.4	–	–	–	–	CC(C)(C)c1ccc(NC(=O)Nc2c3c(nn2-c2cccc(Cl)c2)COC3)cc1	–	–	–	–	–
inactive	< 50	inactive	4.5	1.8	–	–	–	–	Cc1ccc(-n2nc3c(c2NC(=O)Nc2ccc(C(C)(C)C)cc2)CSC3)cc1	–	–	–	–	–
inactive	–	inactive	4.8	1.9	–	–	–	–	CC(C)(C)c1ccc(C(=O)Nc2c3c(nn2-c2cccc(Cl)c2)C[S+]([O-])C3)cc1 (centres undefined)	–	–	–	–	–
inactive	> 90	inactive	> 20	0.06	–	–	–	–	CC(C)(C)c1ccc(S(=O)(=O)Nc2c3c(nn2-c2cccc(C(F)(F)F)c2)CSC3)cc1	–	–	–	–	–
inactive	< 50	inactive	4.3	1.4	2.17	–	–	11.9	CC(C)(C)c1ccc(NC(=O)Nc2c3c(nn2-c2cccc(C(F)(F)F)c2)CSC3)cc1	–	–	–	–	–
inactive	–	inactive	2.5	1.7	–	–	–	–	CC(C)(C)c1ccc(NC(=O)Nc2c3c(nn2-c2cnccn2)COC3)cc1	–	–	–	–	–
inactive	> 90	inactive	> 20	0.4	–	–	40	–	CC(C)(C)c1ccc(S(=O)(=O)Nc2c3c(nn2-c2cccc(Cl)c2)CSC3)cc1	–	–	–	–	–

Reference: ChEMBL document CHEMBL5352440, “Promising antimalarials targeting apicoplast DNA polymerase from Plasmodium falciparum” (Eur J Med Chem, 2022)
